Experiments:
BSA [1] = biological target: T1, BSA (Bos taurus, UniProt P02769); experiment: Extraction efficiency of parent SeC after deproteinization (BSA, NEM-pretreated BSA)
Method: The spiked matrix was obtained by adding 10 µL of SeC solution into 10 µL of blank plasma or 5% BSA solution. To extract the parent SeC from the prepared spiked matrix (20 µL), 50 µL of ACN were added followed by rigorous vortexing. The mixture was centrifuged (30,000 g, 10 min) to obtain the extract. Two µL of the extract were injected into the liquid chromatography-mass spectrometry (LC-MS, Thermo TSQ Quantum Ultra) analyzer. Details about LC conditions (column, mobile phase and flow rate) and MS parameters were listed in Supplementary Table 1.
To clarify the role of albumin thiols, 10 µL of 5% BSA solution were pre-incubated with NEM (10 µL, 0.4 M in DMA) for 10 min before being mixed with SeC solution (10 µL). Again, 50 µL of ACN were used for extraction and 2 µL of the extract were injected into LC-MS for analysis.

human serum albumin = human serum albumin (Homo sapiens, UniProt P02768); experiment: XAS linear combination fitting of SeC-human plasma mixture (SeC-HP); settings: XANES linear combination fitting, total SeC 20 µg/ml; for SeC-HSA (%): albumin-bound share in SeC-human plasma mixture; for SeC (%): free SeC share in SeC-human plasma mixture
Method: SeC solution (40 µL; 2 mg/mL) was mixed with HSA (50 mg/mL in H2O; […]) and kept at room temperature for 30 min. The crude material was separated on a Superdex 200 Increase 10/300 GL column (GE Healthcare). The mobile phase consisted of ACN/H2O (5/95; v/v) at a flow rate of 0.75 mL/min. A total of 40 fractions (1 ml per fraction) approximately were collected, pooled and lyophilized (selenol-human serum albumin conjugate; SeC-HSA).
The mixture of SeC and human plasma (SeC-HP) was prepared. Generally, SeC solution (20 µL; 2 mg/mL) was mixed with 2 mL human plasma, kept at room temperature for 10 min and lyophilized. Selenium K-edge XAS measurements were performed in QEXAFS mode using a Si(311) double-crystal monochromator in CLAESS beamline at ALBA synchrotron light facility (Barcelona, Spain). Self-supported 5 mm pellets of SeC-HSA or SeC-HP (~20 mg) were measured in fluorescence mode using a 5 elements Silicon drift detector. For the reference compounds, the appropriate amount of pure SeC was mixed with cellulose to form pellets with an optimum absorption jump in transmission mode. Transmission was measured with ionization chambers filled with appropriate mixtures of N2 and Kr gases. To avoid radiation damage, all measurements were performed at liquid N2 temperature using the cryostat available at the beamline. Data analysis was performed using Demeter software package (version 0.9.26)[23].
In order to confirm the albumin binding, SeC was firstly allowed to react with HSA. The crude material was then separated by size exclusion chromatography and the eluent corresponding to […] was collected and lyophilized (SeC-HSA). SeC-HSA was subsequently subjected to XAS measurement and compared to the SeC itself. […] In addition, since the XAS spectra of mixtures can be expressed as an additive combination of its constituents, a linear combination fitting analysis using the reference spectra of SeC-HSA and SeC was carried out to assess the amount of each form in the mixture of SeC and human plasma (SeC-HP).
27 Supplementary Table 3. Linear combination fitting results of X-ray absorption near
28 edge spectra. The fitting was performed over the spectra for selenocompound-human plasma
29 mixture between -20 and 50 eV keeping E0 fixed and equal to 0 eV.

C1498 cells = experiment: Cytotoxicity of SeC (CellTiter-Glo); settings: C1498 leukemic cells, 24 hr, within the concentration range tested
Method: C1498 cells were cultured in DMEM supplemented with FBS (10%, v/v), penicillin (100 unit/mL) and streptomycin (100 µg/mL). Cells under the exponential growth phase were used for the cytotoxicity study. […] The stock solutions were diluted with cell culture medium till target concentration range. Briefly, 350 µL of cell suspension (0.2 × 10^6 cells/mL) were mixed with equal volume of SeC solution. The mixture was aliquoted to 96-well plate (100 µL per well) and incubated for 24 hours. Cell viability was determined using CellTiter-Glo kit (Promega, G7571). Cells treated with the appropriate solvent were used as the control. Cell survival rate was calculated as the percentage of […] in SeC-treated cells/control group.

[2] = Pharmacokinetic study in mouse; settings: for clearance / half-life: C57BL/6 albino, iv
Method: Blank plasma (10 µL) was spiked with 5 µL of SeC solution. NEM (10 µL, 0.4 M in DMA) and TCEP (5 µL, 0.2 M in H2O) were successively added to the spiked plasma. The mixture was vortexed for 30 sec and left for 10 min at room temperature before deproteinization using 50 µL of ACN. Two µL of processed sample were injected for LC-MS analysis (LC-MS parameters listed in Supplementary Table 2).
All animal experiments were approved by the Stockholm Southern Ethical Committee and performed in accordance with Swedish Animal Welfare Law (ethical permit no. ID 1031). CysSe2 (0.7 mg/mL) or MeSeA (1 mg/mL) was prepared in DPBS and the pH was adjusted to around 7.4. Ebselen or p-XSC was first dissolved in DMSO/Cremophor EL (1:1, v/v) at 5 mg/mL and then diluted with DPBS till 0.5 mg/mL. CysSe2 or MeSeA was injected into C57BL/6 albino mouse via the tail vein at a dose of 5 mg/kg; while the dose for ebselen and p-XSC was 2 mg/kg. Approximately 50 µL of blood were collected from the facial vein at different time points into EDTA-coated vials. SeC concentration in plasma was analyzed as described under section “Analysis of SeC using RECID”. The detected concentrations were fitted to a bolus injection in a one-compartment open model and the pharmacokinetic parameters were calculated using WinNonLin software (version 2.0).

[3] = Stability of selenocompound in plasma and selenol derivative in processed sample (RECID); assay type: in vitro ADME, human
Method: 48 Supplementary Table 7. Stability of selenocompound in plasma and selenol derivative in
49 processed sample. SeC-spiked plasma was treated as indicated and then analyzed using
50 RECID. SeC-NEM in processed sample was treated in the same way and then subjected to
51 LC-MS analysis. Stability was shown as the percentage of the peak area after indicated
52 treatment to that from base line value. SeC concentrations were 20 µg/mL. Results are shown
53 as the mean ± SD of three technical replicates.
SeC Sample Type Treatment
RT/24 hr 4 °C/24 hr -20 °C/24 hr Freeze-Thaw/5 Cycles

BSA [4] = biological target: T1, BSA; experiment: Albumin binding degree by ultrafiltration; assay type: in vitro ADME, bovine; set-up: purchased Thermo Fisher; settings: 5% albumin solution, SeC 20 µg/mL
Method: Two hundred µL of SeC solution were mixed with equal volume of H2O (control) or 5% BSA solution (final SeC concentration being 20 µg/mL). The mixture was transferred into an ultrafiltration tube (cut off 10 kDa, Sigma-Aldrich, 13239E) and centrifuged (2000 g and 5 min) to obtain the ultra-filtrate. Twenty µL of the ultra-filtrate were mixed with 50 µL of ACN and analyzed for SeC in parent form. Albumin binding degree was calculated as the percentage of SeC peak area in BSA solution in relative to that in H2O.

[5] = 5% BSA (pristine albumin) after deproteinization, SeC 20 µg/mL
[6] = NEM pretreated-BSA (albumin thiols blocked) after deproteinization, SeC 20 µg/mL
[7] = Spiked Plasma, 4 °C/24 hr, SeC 20 µg/mL
[8] = Spiked Plasma, -20 °C/24 hr, SeC 20 µg/mL
[9] = Spiked Plasma, Freeze-Thaw/5 Cycles, SeC 20 µg/mL
[10] = Spiked Plasma, RT/24 hr, SeC 20 µg/mL

T1 sequence (P02769 25-607): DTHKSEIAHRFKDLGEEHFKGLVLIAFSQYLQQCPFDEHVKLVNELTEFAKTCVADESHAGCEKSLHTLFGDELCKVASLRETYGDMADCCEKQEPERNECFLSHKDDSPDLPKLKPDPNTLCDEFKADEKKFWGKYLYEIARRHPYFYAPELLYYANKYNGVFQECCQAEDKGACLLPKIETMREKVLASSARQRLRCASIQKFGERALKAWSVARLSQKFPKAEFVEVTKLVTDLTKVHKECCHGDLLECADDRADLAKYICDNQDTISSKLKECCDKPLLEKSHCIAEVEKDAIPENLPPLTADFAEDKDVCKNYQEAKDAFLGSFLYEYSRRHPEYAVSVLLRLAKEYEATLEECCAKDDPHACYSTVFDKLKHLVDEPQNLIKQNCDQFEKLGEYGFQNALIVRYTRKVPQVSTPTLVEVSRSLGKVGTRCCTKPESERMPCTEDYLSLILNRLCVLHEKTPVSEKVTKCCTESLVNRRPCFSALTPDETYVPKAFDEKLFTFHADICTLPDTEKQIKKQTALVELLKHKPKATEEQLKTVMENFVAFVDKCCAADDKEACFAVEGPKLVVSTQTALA
Chain of human serum albumin (P02768 25-609): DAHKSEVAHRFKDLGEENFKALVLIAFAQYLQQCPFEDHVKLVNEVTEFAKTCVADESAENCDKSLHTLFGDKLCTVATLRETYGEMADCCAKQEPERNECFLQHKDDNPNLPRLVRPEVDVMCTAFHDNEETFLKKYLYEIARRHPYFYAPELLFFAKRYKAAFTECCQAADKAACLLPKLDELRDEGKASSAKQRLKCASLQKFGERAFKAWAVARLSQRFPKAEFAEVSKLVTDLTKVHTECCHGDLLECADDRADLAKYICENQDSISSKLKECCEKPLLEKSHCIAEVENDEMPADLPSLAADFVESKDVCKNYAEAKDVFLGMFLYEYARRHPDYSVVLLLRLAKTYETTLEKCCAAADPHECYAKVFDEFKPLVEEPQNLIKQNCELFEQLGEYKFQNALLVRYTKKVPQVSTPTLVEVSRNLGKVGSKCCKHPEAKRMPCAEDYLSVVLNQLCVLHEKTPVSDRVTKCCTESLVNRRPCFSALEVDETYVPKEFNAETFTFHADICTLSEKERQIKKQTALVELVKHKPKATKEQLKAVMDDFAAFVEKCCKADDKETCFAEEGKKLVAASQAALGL

| Compound | Extraction efficiency (BSA [1]; [5]) | Extraction efficiency (BSA [1]; [6]) [%] | SeC-HSA (%) (human serum albumin) | SeC (%) (human serum albumin) | Cytotoxicity (C1498 cells) | clearance ([2]; plasma) [mL/min] | half-life ([2]; plasma) [min] | Stability (peak area vs base line) [3, 7] [%] | Stability (peak area vs base line) [3, 8] [%] | Stability (peak area vs base line) [3, 9] [%] | Stability (peak area vs base line) [3, 10] [%] | Albumin binding degree (BSA [4]) | further results |
| --- | --- | --- | --- | --- | --- | --- | --- | --- | --- | --- | --- | --- | --- |
| O=c1c2ccccc2[se]n1-c1ccccc1 [Ebselen] | 9.3% | 90.7 | 91.5 | 8.5 | showed cytotoxicity | 0.177 | 13.2 ± 2.4 | 113.1 ± 0.5 | 108.2 ± 3.2 | 97.2 ± 2.7 | 110.3 ± 1.8 | 52–100% | – |
| C[Se]C[C@H](N)C(=O)O [MeSeCys, methylselenocysteine] | – | – | – | – | no cytotoxic effect | – | – | – | – | – | – | < 3% | Extraction efficiency (BSA [1]; bovine, 20 µg/mL): over 95% |
| C[Se](=O)O [MeSeA, methylseleninic acid] | 0% | 94.8 | 100.0 | 0 | showed cytotoxicity | – | – | 108.9 ± 4.8 | 116.0 ± 3.2 | 117.3 ± 0.5 | 110.9 ± 2.0 | 52–100% | Stability (peak area vs base line) ([3]; Processed sample (SeC-NEM derivative), 4 °C/24 hr): 106.7 ± 0.5%; Stability (peak area vs base line) ([3]; Processed sample (SeC-NEM derivative), -20 °C/24 hr): 103.2 ± 1.0%; Stability (peak area vs base line) ([3]; Processed sample (SeC-NEM derivative), Freeze-Thaw/5 Cycles): 104.3 ± 0.4%; Stability (peak area vs base line) ([3]; Processed sample (SeC-NEM derivative), RT/24 hr): 114.3 ± 0.3% |
| NC(C[Se][Se]CC(N)C(=O)O)C(=O)O (stereo not shown) [CysSe2, Selenocystine] | 21.4% | 79.6 | 80.4 | 19.6 | showed cytotoxicity | 0.642 | 8.4 ± 1.2 | 100.9 ± 7.9 | 99.6 ± 6.4 | 102.2 ± 0.6 | 98.6 ± 7.1 | 52–100% | Total exposure compared to that of ebselen ([2]; intravenous, CysSe2 5 mg/kg vs ebselen 2 mg/kg): around 72%; Exposure adjusted for dose, relative to ebselen ([2]; intravenous, dose-adjusted): less than one third |
| N#C[Se]Cc1ccc(C[Se]C#N)cc1 [p-XSC, p-xyleneselenocyanate] | – | – | 100.0 | 0 | showed cytotoxicity | – | – | – | – | – | – | 52–100% | clearance ([2]; in vivo): 0.0967 mL/min; half-life ([2]; in vivo): 30.6 ± 7.2 min |
| C[Se]CC[C@H](N)C(=O)O [SeMet, Selenomethionine] | over 95% | – | – | – | no cytotoxic effect | – | – | – | – | – | – | < 3% | – |
